The text below walks through data of patent US9233921B2, “Potent poxvirus inhibitor” (priority 2013, dated 2016).

Like-named read-outs stand apart in the source and are kept apart here.

The nature of one series: Cytotoxicity (CC50). The conditions noted are these: African green monkey, BSC-1 cells.
The next series deals with vaccinia virus. Briefly: microbe, parasite or virus in culture. The series is classed as cell-based, Vaccinia virus (WR strain).
The mark [1] stands for this setting: Orthopoxvirus vaccinia, BSC-1, read-out: IC50 (antiviral).

As to `COC(=O)c1[nH]c2cc(C)ccc2c1Sc1ccc(Cl)cc1` [Compound 6, Methyl 3-((4-chlorophenyl)thio)-6-methyl-1H-indole-2-carboxylate], in “Cytotoxicity (CC50)”, half-maximal cytotoxicity (CC50) was put at 61 µM. The IC50 in the series with vaccinia virus (setting [1]) was 19 µM.

As for `Cc1ccc2c(Sc3ccc(Cl)cc3)c(C(=O)O)[nH]c2c1` [Compound 1, 3-((4-Chlorophenyl)thio)-6-methyl-1H-indole-2-carboxylic acid], in the series “Cytotoxicity (CC50)”, the CC50 turned out to be 192 µM. Also, the IC50 in the series on vaccinia virus (Orthopoxvirus vaccinia) and with vaccinia virus (setting [1]) was 82 µM each time.

In the case of `COc1ccc(Sc2c(C(=O)O)[nH]c3cccc(C)c23)cc1` [Compound 19, 3-((4-Methoxyphenyl)thio)-4-methyl-1H-indole-2-carboxylic acid], in the series on vaccinia virus, the “IC50 (antiviral)” value is recorded as “failed to show antiviral activities”.

On to `CCn1c(C(=O)O)c(Sc2ccc(Cl)cc2)c2cc(C)ccc21` [Compound 3, 3-((4-Chlorophenyl)thio)-1-ethyl-5-methyl-1H-indole-2-carboxylic acid], for which, in the series on vaccinia virus, the “fold improvement in activity over the corresponding R1 methyl analogs 2 and 4” value stood at 1.5 fold. Also, in the series with vaccinia virus (setting [1]), the IC50 stood at 86 µM.

Take `CCn1c(C(=O)OC)c(Sc2ccc(Cl)cc2)c2cc(C)ccc21` [Compound 5, Methyl 3-((4-chlorophenyl)thio)-1-ethyl-5-methyl-1H-indole-2-carboxylate]: in the series on vaccinia virus, the “fold improvement in activity of 5 over 3” value was 2 fold; the “fold improvement in activity over the corresponding R1 methyl analogs 2 and 4” value worked out at 4 fold. In addition, in the series with vaccinia virus (setting [1]), the IC50 was 39 µM.

Consider `Cc1ccc2c(Sc3ccc(C(F)(F)F)cc3)c(C(=O)O)[nH]c2c1` [Compound 18g, 6-Methyl-3-((4-(trifluoromethyl)phenyl)thio)-1H-indole-2-carboxylic acid], for which half-maximal cytotoxicity in the series “Cytotoxicity (CC50)” (CC50) was put at 137 µM. For the same molecule, the IC50 with vaccinia virus (setting [1]) is 33 µM.

Consider `Cc1ccc2c(Sc3cccc(F)c3)c(C(=O)O)[nH]c2c1` [Compound 18b, 3-((3-Fluorophenyl)thio)-6-methyl-1H-indole-2-carboxylic acid], for which the figures for the 50% inhibitory concentration (IC50) in the series with vaccinia virus (setting [1]) and in the series with vaccinia virus (read-out: IC50 (antiviral)) were 56 µM and 69 µM, respectively.

For the molecule `Cc1cccc2[nH]c(C(=O)O)c(Sc3ccc(Cl)cc3)c12` [Compound 1a, 3-((4-Chlorophenyl)thio)-4-methyl-1H-indole-2-carboxylic acid], the IC50 was 46 to 86 µM in the series with vaccinia virus (setting [1]) and 86 µM in the series with vaccinia virus (read-out: IC50 (antiviral)).

`Cc1ccc2[nH]c(C(=O)O)c(Sc3ccc(Cl)cc3)c2c1` [Compound 1b, 3-((4-Chlorophenyl)thio)-5-methyl-1H-indole-2-carboxylic acid] yielded a CC50 in the series “Cytotoxicity (CC50)” of 136 µM. Besides, the results for the IC50 in the series on vaccinia virus (setting [1]) and with vaccinia virus (read-out: IC50 (antiviral)) were 46 to 86 µM and 46 µM, respectively.

In the case of `CNC(=O)c1[nH]c2cc(C)ccc2c1Sc1cc(Cl)cc(Cl)c1` [Compound 28, 3-((3,5-Dichlorophenyl)thio)-N,6-dimethyl-1H-indole-2-carboxamide], the “IC50 (antiviral)” value with vaccinia virus is reported as “loss of activity”.

On to `Cc1ccc2c(Sc3ccc(Cl)cc3Cl)c(C(=O)O)[nH]c2c1` [Compound 20, 3-((2,4-Dichlorophenyl)thio)-6-methyl-1H-indole-2-carboxylic acid], for which, in the series “Cytotoxicity (CC50)”, the CC50 is 129 µM. Further, the “fold activity improvement over the parent 1” value (shortened to “fold activity improvement”) in the series with vaccinia virus is on record as 2-11 fold.

Turning to `Cc1ccc2c(c1)c(Sc1ccc(Cl)cc1)c(C(=O)O)n2C` [Compound 2, 3-((4-Chlorophenyl)thio)-1,5-dimethyl-1H-indole-2-carboxylic acid], in the series on vaccinia virus (setting [1]), the IC50 was found to be 135 µM.

With `COc1ccc(Sc2c(C(=O)O)[nH]c3cc(C)ccc23)cc1` [Compound 18e, 3-((4-Methoxyphenyl)thio)-6-methyl-1H-indole-2-carboxylic acid], the “IC50 (antiviral)” value in the series on vaccinia virus is listed as “failed to show antiviral activities”.

Consider `Cc1ccc2c(Sc3ccc(C(F)(F)F)cc3[N+](=O)[O-])c(C(=O)O)[nH]c2c1` [Compound 31, 6-Methyl-3-((2-nitro-4-(trifluoromethyl)phenyl)thio)-1H-indole-2-carboxylic acid], for which, in the series with vaccinia virus, the “IC50 (antiviral)” value is listed as “loss of activity”.

As to `COC(=O)c1[nH]c2cccc(C)c2c1Sc1ccc(Cl)cc1` [Compound 9, Methyl 3-((4-chlorophenyl)thio)-4-methyl-1H-indole-2-carboxylate], the IC50 in the series with vaccinia virus (setting [1]) is 21 µM.

Consider `O=C(O)c1[nH]c2cc(F)ccc2c1Sc1ccc(Cl)cc1` [Compound 1g, 6-Fluoro-3-((4-chlorophenyl)thio)-1H-indole-2-carboxylic acid], for which the concentration for half-maximal inhibition (IC50) is 40 to 51 µM in the series with vaccinia virus (setting [1]) and 40 µM with vaccinia virus (read-out: IC50 (antiviral)).

For the molecule `Cc1cccc2c(Sc3cc(Cl)c(Cl)cc3Cl)c(C(=O)O)[nH]c12` [Compound 30a, 7-Methyl-3-((2,4,5-trichlorophenyl)thio)-1H-indole-2-carboxylic acid], it took 93 µM to reach half-maximal cytotoxicity in the series “Cytotoxicity (CC50)” (CC50). The IC50 with vaccinia virus (setting [1]) was 21 µM.

For `COC(=O)c1c(Sc2ccc(Cl)cc2)c2cc(C)ccc2n1C` [Compound 4, Methyl 3-((4-chlorophenyl)thio)-1,5-dimethyl-1H-indole-2-carboxylate], the IC50 with vaccinia virus (setting [1]) worked out at 163 µM.

For `Cc1ccc(Sc2c(C(=O)O)[nH]c3cccc(C)c23)cc1` [Compound 19a, 4-Methyl-3-(p-tolylthio)-1H-indole-2-carboxylic acid], the “IC50 (antiviral)” value in the series on vaccinia virus is given as “failed to show antiviral activities”.

`Cc1ccc2c(Sc3cccc(Cl)c3)c(C(=O)O)[nH]c2c1` [Compound 18a, 3-((3-Chlorophenyl)thio)-6-methyl-1H-indole-2-carboxylic acid]: the IC50 with vaccinia virus (setting [1]) turned out to be 51 µM.

In the case of `Cc1ccc2c(Sc3ccccc3)c(C(=O)O)[nH]c2c1` [Compound 18, 6-Methyl-3-(phenylthio)-1H-indole-2-carboxylic acid], the “IC50 (antiviral)” value in the series on vaccinia virus is listed as “abolished its antiviral activity”.

As to `Cc1ccc2c(Sc3ccc(Br)cc3)c(C(=O)O)[nH]c2c1` [Compound 18c, 3-((4-Bromophenyl)thio)-6-methyl-1H-indole-2-carboxylic acid], in “Cytotoxicity (CC50)”, half-maximal cytotoxicity (CC50) was put at 133 µM. The “IC50 (antiviral)” value in the series on vaccinia virus is reported as “loss of activity”.

For the molecule `CCc1ccc2c(Sc3ccc(Cl)c(Cl)c3)c(C(=O)O)[nH]c2c1` [Compound 23, 3-((3,4-Dichlorophenyl)thio)-6-ethyl-1H-indole-2-carboxylic acid], in the series on vaccinia virus (setting [1]), the IC50 is 42 µM.

`COC(=O)c1ccc(Sc2c(C(=O)O)[nH]c3cccc(C)c23)cc1` [Compound 19b, 3-((4-(Methoxycarbonyl)phenyl)thio)-4-methyl-1H-indole-2-carboxylic acid]: the “IC50 (antiviral)” value in the series with vaccinia virus is “failed to show antiviral activities”.

With `Cc1ccc2c(Sc3ccc(C(=O)O)cc3)c(C(=O)O)[nH]c2c1` [Compound 18f, 3-((4-Carboxyphenyl)thio)-6-methyl-1H-indole-2-carboxylic acid], the “IC50 (antiviral)” value in the series with vaccinia virus was “loss of activity”.

Regarding `Cc1ccc2c(Sc3ccc(Cl)c(Cl)c3)c(C(=O)O)[nH]c2c1` [Compound 21, 3-((3,4-Dichlorophenyl)thio)-6-methyl-1H-indole-2-carboxylic acid], the CC50 in the series “Cytotoxicity (CC50)” worked out at 76 µM. Further, the “fold activity improvement” value in the series on vaccinia virus is on record as 2-11 fold.

Take `O=C(O)c1[nH]c2cc(Cl)ccc2c1Sc1ccc(Cl)cc1` [Compound 1e, 6-Chloro-3-((4-chlorophenyl)thio)-1H-indole-2-carboxylic acid]: the CC50 in “Cytotoxicity (CC50)” is 138 µM. In addition, the IC50 with vaccinia virus (setting [1]) was 40 to 51 µM; in the series on vaccinia virus (read-out: IC50 (antiviral)), 47 µM.

With `Cc1cccc2[nH]c(C(=O)O)c(Sc3ccc([N+](=O)[O-])cc3)c12` [Compound 19c, 4-Methyl-3-((4-nitrophenyl)thio)-1H-indole-2-carboxylic acid], the “IC50 (antiviral)” value in the series on vaccinia virus is recorded as “loss of activity”.

In turn, `Cc1cccc2[nH]c(C(=O)O)c(Sc3cc(Cl)c(Cl)cc3Cl)c12` [Compound 30b, 4-Methyl-3-((2,4,5-trichlorophenyl)thio)-1H-indole-2-carboxylic acid] gave a CC50 in “Cytotoxicity (CC50)” of 65 µM. Also, in the series with vaccinia virus (setting [1]), the IC50 was determined as 18 µM.

With `O=C(O)c1[nH]c2cc(Br)ccc2c1Sc1ccc(Cl)cc1` [Compound 1f, 6-Bromo-3-((4-chlorophenyl)thio)-1H-indole-2-carboxylic acid], the 50% cytotoxic concentration (CC50) in the series “Cytotoxicity (CC50)” turned out to be 90 µM. The IC50 with vaccinia virus (setting [1]) was 40 to 51 µM; in the series on vaccinia virus (read-out: IC50 (antiviral)), 51 µM.

`Cc1ccc(C)c2c(Sc3ccc(Cl)cc3)c(C(=O)O)[nH]c12` [Compound 1j, 3-((4-chlorophenyl)thio)-4,7-dimethyl-1H-indole-2-carboxylic acid] displayed a CC50 in the series “Cytotoxicity (CC50)” of 109 µM. Also, the IC50 with vaccinia virus (setting [1]) stood at 50 µM.

Molecule `Cc1cccc2c(Sc3ccc(Cl)c(Cl)c3)c(C(=O)O)[nH]c12` [Compound 22, 3-((3,4-Dichlorophenyl)thio)-7-methyl-1H-indole-2-carboxylic acid] registered a CC50 in “Cytotoxicity (CC50)” of 150 µM. Besides, the “fold activity improvement” value in the series with vaccinia virus is on record as 2-11 fold.

Regarding `O=C(O)c1[nH]c2ccccc2c1Sc1ccc(Cl)cc1` [Compound 1d, 3-(4-Chlorophenylthio)-1H-indole-2-carboxylic acid], in the series with vaccinia virus, the “IC50 (antiviral)” value is “loss of activity”.

With `Cc1ccc2c(Sc3cc(Cl)cc(Cl)c3)c(C(=O)O)[nH]c2c1` [Compound 24, 3-((3,5-Dichlorophenyl)thio)-6-methyl-1H-indole-2-carboxylic acid], the CC50 in the series “Cytotoxicity (CC50)” turned out to be 75 µM. Moreover, in the series with vaccinia virus, the “SI (selectivity index = CC50/IC50)” value amounted to 11 and the “fold activity improvement” value is listed as 2-11 fold. This molecule also returned an IC50 with vaccinia virus (Orthopoxvirus vaccinia) of 7 µM. Besides, the IC50 in the series with vaccinia virus (setting [1]) fell in the range of 7 to 37 µM.

In the case of `CCc1ccc2c(Sc3ccc(Cl)cc3)c(C(=O)O)[nH]c2c1` [Compound 1h, 3-((4-Chlorophenyl)thio)-6-ethyl-1H-indole-2-carboxylic acid], in the series on vaccinia virus (setting [1]), the IC50 stood at 36 µM.

For “3-((3,5-Dichlorophenyl)thio)-6-methyl-1H-indole-2-carboxylate [Compound 27]”, in the series on vaccinia virus, the “IC50 (antiviral)” value was “loss of activity”.

As to `COc1cccc2[nH]c(C(=O)O)c(Sc3ccc(Cl)cc3)c12` [Compound 1i, 3-((4-Chlorophenyl)thio)-4-methoxy-1H-indole-2-carboxylic acid], in the series on vaccinia virus, the “IC50 (antiviral)” value was “loss of activity”.

Consider `Cc1ccc(Sc2c(C(=O)O)[nH]c3cc(C)ccc23)cc1` [Compound 18d, 6-Methyl-3-(p-tolylthio)-1H-indole-2-carboxylic acid], for which the “IC50 (antiviral)” value in the series with vaccinia virus is on record as “failed to show antiviral activities”.

With `Cc1cccc2c(Sc3ccc(Cl)cc3)c(C(=O)O)[nH]c12` [Compound 1c, 3-((4-Chlorophenyl)thio)-7-methyl-1H-indole-2-carboxylic acid], the results for the IC50 in the series on vaccinia virus (setting [1]) and in the series with vaccinia virus (read-out: IC50 (antiviral)) were 46 to 86 µM and 74 µM, respectively.
